Here are results for 81 molecules from paper PMC12040169 (PLOS Biology, 2025).

The data set can be described thus: in vitro. To be noted: human, hela cells.

Consider `CN1CCC[C@H]1C(=O)Nc1ccc2[nH]ccc2c1` [CBK159699], for which the viability – broadly, a read-out of living cells in per cent, often relative to untreated cells – at 28.5 h, 10 µM (% viability) was determined as 97.6%.
In the case of `Cc1nn(CC(=O)N(C)CCn2ccnc2C)c(=O)c2ccccc12` [CBK306536], the viability at 28.5 h, 10 µM (% viability) was 91.8%.
In the case of `Cc1n[nH]c(NN)c1Cl` [CBK260876C], the viability at 28.5 h, 10 µM (% viability) stood at 89.5%.
Still for that read-out and setting: under `CCOC(=O)c1ccccc1NS(=O)(=O)Cc1ccccc1[N+](=O)[O-]` [CBK050594] stands 92.3%.
On the same count and under the same terms, under `CN(C(=O)CSc1nnn(C)n1)c1ccccc1` [CBK058129] stands 117%; under `CC(C)(C)OC(=O)c1cc(C(=O)O)ccc1O` [CBK000394], 90%; under `CCOC(=O)/C(C(=O)c1ccccc1)=C(/N)NCCO` [CBK265621], 110%.
On the same count and under the same terms, the figure for `CCOc1cc(/C=C(/C#N)c2nc3ccccc3[nH]2)ccc1OCc1ccc(C(=O)O)o1` [CBK267923] is 88.9%.
With `Nc1nnc(SCc2nc(=O)c3ccccc3[nH]2)s1` [CBK270059], the viability at 28.5 h, 10 µM (% viability) is 92.2%.
On the same count and under the same terms, the figure for `Cc1ccc(C2=CCN(CC(=O)Nc3ccccn3)CC2)o1` [CBK283634] is 98.7%; for `O=C(CC(C(=O)O)n1cnc([N+](=O)[O-])n1)c1ccc(Br)cc1` (stereo not drawn) [CBK267524] it is 89%; for `CCCC/C=C/c1cncc(N[C@@H](C)c2ccccc2)n1` [CBK065472] it is 109%.
For the molecule `Cc1ccc(S(=O)(=O)N(C)CC(=O)N(C)Cc2ccccc2)cc1` [CBK264201], under “% viability”, the viability at 28.5 h, 10 µM came out at 95.5%.
As for `COc1ccc(OC)c(-n2c(S)nnc2Cn2c(-c3ccccn3)nc3ccccc32)c1` [CBK269320], where the note is “% viability”, the viability at 28.5 h, 10 µM stood at 93.5%.
For `COc1cccc(/C=C\c2[nH]c(=O)[nH]c(=O)c2[N+](=O)[O-])c1OCC(=O)O` [CBK266822], under “% viability”, the viability at 28.5 h, 10 µM amounted to 104%.
Turning to `CN1CCc2nc(SCC(=O)NC(C)(C)C)c(C#N)cc2C1` [CBK267445], for the setting “% viability”, the viability at 28.5 h, 10 µM turned out to be 87.4%.
Same read-out and setting: under `CS(=O)(=O)Nc1cccc(-c2cnc3[nH]c(=O)n(Cc4cccs4)c3n2)c1` [CBK064708] stands 91%; under `CN(Cc1ccncc1)C(=O)CCn1c(C(F)F)cc2cccnc21` [CBK285070], 81%; under `Oc1ccccc1-c1ccnc(SC(F)F)n1` [CBK021971], 81.8%.
The same measure, in the same setting: under `CS(=O)(=O)Nc1cc(-c2noc([C@@H]3CCCN3Cc3ccccn3)n2)ccn1` [CBK288885] stands 87.3%.
The same measure, in the same setting: under `CN(C1CCCCC1)S(=O)(=O)NCCc1cn2ccccc2n1` [CBK305576] stands 102%; under `CC(C)(CO)NC(=O)COc1ccc(Cl)cc1` [CBK261833], 103%; under `Cn1nc(-c2ccc(Cl)cc2)cc1NC(=O)Cn1nnc(-c2ccc(F)cc2)n1` [CBK295203], 82.7%.
Turning to `Cc1cc(/C=C(/C#N)c2nc3ccccc3[nH]2)c(C)n1-c1ccc(S(N)(=O)=O)cc1` [CBK264769], the viability at 28.5 h, 10 µM (% viability) was 77.8%.
As to `Cc1nc2cc(C(=O)NCC(C)(C)N3CCCCC3)ccc2n1C` [CBK281862], the viability at 28.5 h, 10 µM (% viability) is 86.4%.
Same read-out and setting: the figure for `O=C(O)/C(O)=C/C(=O)c1ccc(F)cc1` [CBK261844] is 89.4%; for `N=C(N)NCC(=O)N(CCc1cc(C(F)(F)F)cc(C(F)(F)F)c1)c1cccc2ccccc12` [CBK001122T] it is 105%; for `CC(C)Nc1nc2cc(Cl)c(Cl)cc2nc1OCCCN(C)C` [CBK115282] it is 93.1%.
Same read-out and setting: the figure for `CC1CCCN(Cc2c(C3CCOCC3)[nH]c3ncccc23)C1` (stereo not drawn) [CBK284687] is 97%.
Turning to `Cc1c(C(=O)O)sc(S(=O)(=O)N2CCN(C(=O)c3ccc(C(C)(C)C)cc3)CC2)c1C(=O)O` [CBK297119], the viability at 28.5 h, 10 µM (% viability) amounted to 85.1%.
Turning to `O=S1(=O)CCC(SCc2ccccc2)C1` (stereo not drawn) [CBK019237], under “% viability”, the viability at 28.5 h, 10 µM was determined as 89.1%.
On the same count and under the same terms, the figure for `CCCc1cc(C(=O)N[C@@H]2CCOC[C@H]2Oc2ccc(CO)cc2)cs1` [CBK306700] is 91.6%; for `CC(=O)N1CCc2sccc2C1c1ccccc1NCc1ccoc1` (stereo not drawn) [CBK286432] it is 91.6%.
On the same count and under the same terms, under `CCCn1ncc(CN2CCC(c3cc4cccnc4[nH]3)CC2)c1C` [CBK284949] stands 97.2%.
In the case of `c1nc(Nc2ccc3[nH]ccc3c2)cc(-c2ccc(N3CCOCC3)cc2)n1` [CBK090851], the viability at 28.5 h, 10 µM (% viability) was 91.1%.
In the case of `Cc1cc(N2CCC(N(C)C)CC2)nc(N)n1` [CBK167267], the viability at 28.5 h, 10 µM (% viability) came out at 106%.
On the same count and under the same terms, under `Cc1ccc(-c2nnc(CNC(=O)Cc3ccc(F)cc3)o2)s1` [CBK284645] stands 91.3%; under `O=[N+]([O-])c1ccc(N2CCCCC2)s1` [CBK016566], 104%.
For `CN1N=C(c2ccccc2)CC1=O` [CBK067774], for the setting “% viability”, the viability at 28.5 h, 10 µM was 96.4%.
On the same count and under the same terms, under `Cc1cc2nc(-c3ccccc3)[nH]c2cc1C` [CBK086484] stands 80.1%.
Regarding `CNC(=O)Oc1ccc(C)cc1C(=O)N(C)C` [CBK012319], the viability at 28.5 h, 10 µM amounted to 111%.
With `Nc1nc(-c2ccccc2)nn1C(=O)CCc1ccccc1` [CBK074471], the viability at 28.5 h, 10 µM (% viability) stood at 95.9%.
On the same count and under the same terms, under `COc1cc(/C=C(\C#N)c2nn(-c3ccccc3)c(N)c2C#N)ccc1Oc1ccc(C(F)(F)F)cc1[N+](=O)[O-]` [CBK262484] stands 92.7%; under `COc1ccc([C@@]23CCC(CC(=O)O)C[C@@H]2N(C)CC3)cc1OC` (stereo partly drawn) [CBK045765A], 107%.
On the same count and under the same terms, under `FC(F)(F)c1ccnc(OCCN2CCNCC2)n1` [CBK113297] stands 97.5%; under `CCNC(=O)Nc1cc2cccnc2nc1-c1cc(F)cc(F)c1` [CBK070638], 97%; under `Cc1[nH]c2c(C(=O)Nc3cccc(CN4CCOC4=O)c3)cccc2c1C` [CBK298338], 90.3%.
On to `Cn1cncc1CN1CCCC(c2cc3cccnc3[nH]2)C1` (stereo not drawn) [CBK284948], for which the viability at 28.5 h, 10 µM (% viability) was 98.4%.
Same read-out and setting: under `CCC(CC)C(=O)N(C)c1c(C)nc2ccc(C(=O)N(C)CCN(C)C)cn12` [CBK146491] stands 94.8%; under `CN(C)CCN(Cc1ccncc1)Cc1cc(F)ccc1F` [CBK283095], 88%; under `Cc1cccc(Cn2nc(C)c(NC(=O)c3ccncc3)c2C)c1` [CBK270126], 97.2%.
Same read-out and setting: the figure for `NC(=O)NC(CC(=O)N1CCCC1c1ccncc1)c1cccc(Br)c1` (stereo not drawn) [CBK306345] is 92.7%; for `O=C(CCn1c(C(F)F)cc2cccnc21)NC1CCCCC1` [CBK285064] it is 92.1%.
`O=C(COc1ccc(S(=O)(=O)N2CCCC2)cc1Cl)NCc1ccccn1` [CBK268412]: under “% viability”, the viability at 28.5 h, 10 µM worked out at 91.3%.
Same read-out and setting: the figure for `Cc1cc(O)n(-c2cc(-c3ccccc3)nc(-c3ccccc3)n2)n1` [CBK262014] is 95.5%.
For `O=[N+]([O-])c1ccc(NCCNS(=O)(=O)c2ccccc2)cc1` [CBK261948], where the note is “% viability”, the viability at 28.5 h, 10 µM came to 96.1%.
`CCCCn1cc(CN(C)C)c2c(C)ccnc21` [CBK008697]: the viability at 28.5 h, 10 µM (% viability) worked out at 102%.
The same measure, in the same setting: the figure for `COc1ccccc1N(CC(O)CN1CCCC1)S(=O)(=O)c1ccccc1` (stereo not drawn) [CBK264829] is 114%; for `O=S(=O)(c1cccc2nsnc12)N1CCN(C2CCCCC2)CC1` [CBK268173] it is 96.9%.
Still for that read-out and setting: the figure for `O=c1c(Oc2ccc3ccccc3c2)c(C(F)(F)F)oc2c(CN3CCOCC3)c(O)ccc12` [CBK264487] is 103%; for `COc1cccc(NC(=O)N2CCC3(CC2)NC(=O)c2cc(-c4ccoc4)ccc2O3)c1` [CBK115855] it is 102%.
On the same count and under the same terms, the figure for `NNC(=O)c1cc2ccccc2cc1NS(=O)(=O)c1ccccc1` [CBK263261] is 84.4%; for `O=C(NC1Cc2ccccc2C1)c1ccc2ncccc2c1` [CBK200354] it is 96.2%; for `O=C(CCN1CCCCC1)N1CCc2ccccc21` [CBK200413] it is 91.1%.
For `COc1cccc(NC(=O)NCCc2ccncc2)c1` [CBK270022], for the setting “% viability”, the viability at 28.5 h, 10 µM turned out to be 90.3%.
The same measure, in the same setting: under `COc1ccccc1N1CCN(C(=O)CC2(CC(=O)O)CCCC2)CC1` [CBK296137] stands 105%.
`O=c1c2c([nH]c3nc(COc4ccccc4)nn13)CCC2` [CBK288188]: under “% viability”, the viability at 28.5 h, 10 µM came out at 98%.
On the same count and under the same terms, the figure for `CCN(Cc1ccncc1)S(=O)(=O)c1ccc(Cl)c(Cl)c1` [CBK043818] is 96.2%; for `O=C(CC1CCCCC1)Nc1snnc1-c1ccc(Cl)cc1` [CBK153245] it is 114%; for `Cn1cc(C2CCCCN2C(=O)c2cccc(C#N)c2)cn1` (stereo not drawn) [CBK304611] it is 87.9%.
Consider `CCOc1ccc(-c2cncc(Nc3ccc4c(c3)OC(F)(F)C(F)(F)O4)n2)cc1` [CBK065728], for which, where the note is “% viability”, the viability at 28.5 h, 10 µM was 96.8%.
Consider `COC(=O)Cn1cnc2sc(C(=O)Nc3ccccc3OC)c(C)c2c1=O` [CBK071808], for which, for the setting “% viability”, the viability at 28.5 h, 10 µM was found to be 109%.
With `COc1ccc([C@H]2CN(C(=O)c3ccccc3)[C@@H]3CCN(Cc4cccs4)C[C@H]23)cc1` [CBK285582], where the note is “% viability”, the viability at 28.5 h, 10 µM is 103%.
For the molecule `C=CCOc1ccc(C(=O)C2=C(O)C(=O)N(Cc3cccnc3)C2c2cccnc2)cc1` (stereo not drawn) [CBK265167], the viability at 28.5 h, 10 µM (% viability) is 98%.
`Cc1c(C(=O)N2CCCC2C(N)=O)nnn1Cc1ccc(F)cc1F` (stereo not drawn) [CBK305925]: the viability at 28.5 h, 10 µM (% viability) is 94.5%.
Turning to `COc1cccc(CCN2CCC(C(=O)NC(c3ccc(F)cc3)c3nc(OC)cc(OC)n3)CC2)c1` (stereo not drawn) [CBK148089], the viability at 28.5 h, 10 µM (% viability) was found to be 92.2%.
Turning to `OCCOc1ccc(Cl)c2cccnc12` [CBK000620], the viability at 28.5 h, 10 µM (% viability) was 78.1%.
Same read-out and setting: the figure for `O=C1NCCc2c1[nH]c1ccc(Cl)cc21` [CBK015755] is 38.9%; for `CC(C)(C)NC(=O)Cn1cncc1-c1cnn(C2CCCCC2)c1` [CBK281701] it is 93.5%; for `CC(CNC(=O)C1CCCCC1C(=O)O)c1ccccc1` (stereo not drawn) [CBK268028] it is 97.1%.
Same read-out and setting: under `CSCCC(=O)N1CCN(c2ncccn2)CC1` [CBK144509] stands 90.3%.
